Experiments:
[1] = test system: E. coli ATCC 25922 (SEN) and E. coli NCTC13846 (MDR); assay: Frequency-of-resistance (FoR) assay, relative MIC of mutants; format: cell-based, Escherichia coli; settings: for MIC: Escherichia coli
Description: The susceptibility of antibiotics to resistance development was evaluated in two strains of each bacterial species: a multidrug-resistant strain and an antibiotic-sensitive strain of Escherichia coli, Klebsiella pneumoniae, Acinetobacter baumannii, and Pseudomonas aeruginosa. To explore first-step resistance, we previously used a standard protocol for spontaneous frequency-of-resistance analysis (FoR assay) at multiple concentrations of each antibiotic[10],[28],[31]–[33]. […] For all other combinations, approximately 10^10 bacterial cells were exposed to one of each antibiotic on agar plates for two days at concentrations where the given strain is susceptible. We examined resistance levels by contrasting the minimum inhibitory concentration (MICs) of the mutated strains to the original wild-type bacterial strain (i.e., relative MIC).
To estimate the frequency of spontaneous mutations that confer resistance in a microbial population, we conducted a frequency of resistance (FoR) assay following established protocols[10],[31]–[33]. […] Prior to plating, bacteria were grown overnight in MHB medium at 37 °C and 250 RPM, then centrifuged and washed in MHB. All experiments were performed in triplicate, and plates were incubated at 37 °C for 48 hours. Total colony-forming units (CFUs) were determined by plating appropriate dilutions onto antibiotic-free MHB agar. Resistance frequencies were calculated by dividing the number of resistant colonies by the initial viable cell count. From the plates with the highest antibiotic concentration, ten colonies were selected for MIC determination and whole-genome sequencing.
A robotic liquid handling system was used to automatically prepare a 11 to 16-step serial dilution in 384-well microtiter plates (Greiner). A final concentration of 5 × 10^5 bacterial cells per mL were inoculated into each well containing 60 µL MHB medium. Bacterial cultures were incubated at 37 °C with continuous shaking (Infors shaker, 900 rpm with 3 mm throw) for 18 hours (2 replicates from each). Cell growth was monitored by measuring the optical density (OD600 values, using Biotek Synergy microplate reader). MIC was defined as the antibiotic concentration of complete growth inhibition (i.e., OD600 < 0.05). Relative MIC was calculated as follows:1 relativeMIC=MICevolved/MICancestor […]
Supplementary Figure 3. Resistance levels following the frequency of resistance assay across bacterial strains. The level of resistance was measured as the fold change in relative MIC between evolved and ancestral strains. Data are grouped by bacterial strain (A. baumannii (AB), E. coli (EC), K. pneumoniae (KP), and P. aeruginosa (PA)) and categorized as either multidrug-resistant (MDR) or sensitive (SEN). Each data point represents a laboratory evolved line, and boxplots show the median, first and third quartiles, with whiskers indicating the 5th and 95th percentiles. […]
analysis was performed using two-sided Dunn’s post-hoc test with Benjamini-Hochberg correction for multiple comparisons (**/ * indicates p < 0.01/ 0.05). For detailed information on antibiotic and bacterial species, see Supplementary Table 1. For mode of action groups, refer to Table 1. Source data are provided as a Source Data file.

[2] = test system: E. coli ATCC 25922 (SEN) and E. coli NCTC13846 (MDR); assay: microbe, parasite or virus in culture; format: cell-based, Escherichia coli; settings: for MIC: across three biological replicates
Description: This study focused on multiple bacterial strains, as follows. For the FoR and ALE experiments, 2 strains per species were chosen: E. coli ATCC 25922, K. pneumoniae ATCC 10031, A. baumannii ATCC 17978, and P. aeruginosa ATCC BAA-3107 as sensitive (SEN) strains, and E. coli NCTC13846, K. pneumoniae ATCC 700603, A. baumannii ATCC BAA-1605 and P. aeruginosa LESB58 as multi-drug resistant (MDR) strains. Functional metagenomic screens were performed with E. coli ATCC 25922 and K. pneumoniae ATCC 10031 strains. To determine the dose-kill properties of the different antibiotics, an E. coli strain (ATCC 25922) expressing a yellow fluorescent protein (pZS2R, YFP, CHL^R) and a red fluorescent protein (pZS2R, mCherry, CHL^R) was used.
Unless otherwise indicated, cation-adjusted Mueller-Hinton Broth 2 (MHB, Millipore) medium was used throughout the study, except for SCH79797 (SCH).
A robotic liquid handling system was used to automatically prepare a 11 to 16-step serial dilution in 384-well microtiter plates (Greiner). A final concentration of 5 × 10^5 bacterial cells per mL were inoculated into each well containing 60 µL MHB medium. Bacterial cultures were incubated at 37 °C with continuous shaking (Infors shaker, 900 rpm with 3 mm throw) for 18 hours (2 replicates from each). Cell growth was monitored by measuring the optical density (OD600 values, using Biotek Synergy microplate reader). MIC was defined as the antibiotic concentration of complete growth inhibition (i.e., OD600 < 0.05). Relative MIC was calculated as follows:1 relativeMIC=MICevolved/MICancestor

[3] = Escherichia coli ATCC 25922 (EC-SEN), evolved line 1 versus ancestor
[4] = Escherichia coli ATCC 25922 (EC-SEN), evolved line 2 versus ancestor
[5] = Escherichia coli ATCC 25922 (EC-SEN), evolved line 3 versus ancestor
[6] = read-out: MIC of evolved line, Escherichia coli ATCC 25922 (EC-SEN), evolved line 1
[7] = read-out: MIC of evolved line, Escherichia coli ATCC 25922 (EC-SEN), evolved line 2
[8] = read-out: MIC of evolved line, Escherichia coli ATCC 25922 (EC-SEN), evolved line 3
[9] = Escherichia coli ATCC 25922 (EC-SEN), ancestor strain, sheet fig 2a
[10] = Escherichia coli, Escherichia coli ATCC 25922 (EC-SEN)
[11] = Escherichia coli, Escherichia coli NCTC 13846 (EC-MDR)

Compound | Relative MIC [1, 3] | Relative MIC [1, 4] | Relative MIC [1, 5] | MIC [1, 6] [µg/mL] | MIC [1, 7] [µg/mL] | MIC [1, 8] [µg/mL] | MIC of ancestor [2, 9] [µg/mL] | MIC [2, 10] [µg/mL] | MIC [2, 11] [µg/mL] | also measured
CNC(C)C1CCC(N)C(OC2C(N)CC(N)C(OC3OCC(C)(O)C(NC)C3O)C2O)O1 (stereo not drawn) [Gentamicin] | 16 | 16 | 8 | 16 | 16 | 8 | 1 | 1 | 1 | Relative MIC ([1]; E. coli NCTC 13846 (EC-MDR), evolved line 1, evolved vs ancestor): 8; Relative MIC ([1]; E. coli NCTC 13846 (EC-MDR), evolved line 2, evolved vs ancestor): 4; Relative MIC ([1]; E. coli NCTC 13846 (EC-MDR), evolved line 3, evolved vs ancestor): 4; MIC ([1]; read-out: MIC of evolved line, E. coli NCTC 13846 (EC-MDR), evolved line 1): 8 µg/mL; MIC ([1]; read-out: MIC of evolved line, E. coli NCTC 13846 (EC-MDR), evolved line 2): 4 µg/mL; MIC ([1]; read-out: MIC of evolved line, E. coli NCTC 13846 (EC-MDR), evolved line 3): 4 µg/mL; MIC of ancestor ([2]; E. coli NCTC 13846 (EC-MDR), ancestor strain, sheet fig 2a): 1 µg/mL; MIC of ancestor ([2]; EC-MDR, Escherichia coli NCTC 13846, ancestor strain): 1 µg/mL; MIC of ancestor ([2]; EC-SEN, Escherichia coli ATCC 25922, ancestor strain): 1 µg/mL
CN[C@@H]1[C@@H](O[C@H]2O[C@H](CO)[C@@H](N)[C@H](O)[C@H]2O)OC2C[C@@H](N)[C@@H](O[C@H]3[C@H](O)[C@@H](O)[C@H](N)C[C@@H]3N)OC2[C@@H]1O (stereo partly drawn) [Apramycin] | – | – | – | – | – | – | – | 16 | 8 | –
Nc1nc(-n2cc(C(=O)O)c(=O)c3cc(F)c(N4CC(O)C4)c(Cl)c32)c(F)cc1F [Delafloxacin] | 1 | 1 | 1 | – | – | – | 0.0312 | 0.0312 | 16 | MIC of ancestor ([2]; Escherichia coli ATCC 25922 (EC-SEN), ancestor strain): 0.0312 µg/mL
CN(C)c1cc(CNCC(C)(C)C)c(O)c2c1C[C@H]1C[C@H]3[C@H](N(C)C)C(O)=C(C(N)=O)C(=O)[C@@]3(O)C(O)=C1C2=O [Omadacycline] | 2 | 2 | 2 | 4 | 4 | 4 | 2 | 2 | 16 | MIC of ancestor ([2]; Escherichia coli ATCC 25922 (EC-SEN), ancestor): 2 µg/mL
POL7306 | – | – | – | – | – | – | – | – | – | MIC ([2]; Escherichia coli ATCC 25922 (EC-SEN)): 1 µg/mL; MIC ([2]; Escherichia coli NCTC 13846 (EC-MDR)): 4 µg/mL

Reference: publication PMC11845477, “Exploring the principles behind antibiotics with limited resistance” (Nature Communications, 2025)
